# Assay results: patent US11708562B2, “Differentiation of human embryonic stem cells” (Janssen Biotech, Inc., priority 2006, dated 2023)
# Columns and labels:
# [1] = system: H9P46-P48 embryonic stem cells; test: Definitive endoderm on […]: effect of GSK-3B inhibitor (FACS CXCR4, PCR); format: cell-based, human; settings: 20 ng/ml of Wnt-3a or 100-1000 nM GSK-3B inhibitor
# Procedure: In order to confirm that the effect of Wnt-3a was through the Wnt pathway, a GSK-3 inhibitor was used to activate the downstream targets of Wnt, such as beta catenin. […] FIG. 29A depicts the expression of CXCR4 by FACS at day 5 in the absence of Wnt-3a or GSK-3B inhibitor, b)+20 ng/ml Wnt-3a, c)+1000 nM GSK-3B inhibitor IX, d)+500 nM GSK-3B inhibitor IX, e)+100 nM GSK-3B inhibitor IX, f)+10 nM GSK-3B inhibitor IX, g)+100 nM GSK-3B inhibitor IX for days 1-2, and h)+10 nM GSK-3B inhibitor IX for days 1-2.
# [2] = system: H9P53 embryonic stem cells; test: Definitive endoderm on […]: combination of Wnt-3a, GSK-3B inhibitor, BMP-4; format: cell-based, human
# Text: Results are expressed as fold increase over untreated cells. […] Results are expressed as fold increase over untreated cells.
# [3] = system: human embryonic stem cell line H1 at passage 55; test: Definitive endoderm on human serum coated plates (real-time PCR); format: cell-based
# Procedure: Cultures of the human embryonic stem cell line H1 at passage 55 were grown and differentiated on human serum (Sigma, # H1388, MO) coated plates. 0.5 ml of human serum was added to each well of 6 well tissue culture treated dish, incubated for 1 hr at room temperature, and aspirated before adding human embryonic stem cells. […] These findings parallel our findings for human embryonic stem cells cultured on […]™ or human fibronectin coated plates.
# [4] = system: human embryonic stem cell line H9; test: Formation of pancreatic endocrine cells: γ-secretase inhibitor L-685,458 (PCR); format: cell-based; settings: L-685,458 at 10 μM for three days
# Procedure: After this time interval, the cells were then treated for six days with combinations of retinoic acid and FGF as outlined in Example 2, then the culture medium was removed and replaced with medium comprising DMEM/F12 with 2% FBS, containing the γ-secretase inhibitors L-685,458 at 10 μM for three days.
# [5] = system: human embryonic stem cell line H9; test: Formation of pancreatic endoderm: retinoic acid and bFGF after activin A (PCR, immunocytochemistry); format: cell-based
# Text: Final data were expressed relative to a calibrator sample.
# [6] = system: human embryonic stem cell line H9; test: Derivation of hepatocytes from human embryonic stem cells (PCR of AFP, albumin); format: cell-based; settings: five days after 7 days activin A
# Text: After this time, the cells were harvested, and samples of mRNA were collected for analysis.
# [7] = system: H7P44 and H9P46 embryonic stem cells; test: Definitive endoderm on […]: role of Wnt ligands (FACS CXCR4, real-time PCR); format: cell-based, human; settings: H7 and H9; low serum+AA+/-Wnt ligands
# Procedure: In some of the cultures 20 ng/ml Wnt-3a (Catalog #1324-WN-002, R&D Systems, MN), 20 ng/ml Wnt-5a (Catalog #654-WN-010, R&D Systems, MN), 25 ng/ml Wnt-7a (Catalog #3008-WN-025, R&D Systems, MN), or 25 ng/ml Wnt-5b (Catalog #3006-WN-025, R&D Systems, MN) was added throughout the five day treatment. FIGS. 24A and 24B depicts phase contrast images of H9P46 definitive endoderm culture in the presence of high concentration of (a) AA or (b) AA+20 ng/ml Wnt-3a. FIGS. 25A, 25B, 25C and 25D depicts the expression of CXCR4 by FACS at day 5 for H7P44, and H9P46 lines cultured on […]™ (1:30 dilution) and exposed to the DE protocol+Wnt-3a (FIGS. 25B and 25D) and -Wnt-3a (FIGS. 25A and C).
molecule,measurement,setting,value
"O=C1Nc2cc(Br)ccc2/C1=C1/Nc2ccccc2/C1=N\O [GSK-3B inhibitor IX, reference compound]",number of CXCR4 positive cells (FACS),[1],significantly increased
same,"definitive endoderm markers, combination versus each agent by itself",[2]; Wnt-3A plus GSK inhibitor in the presence of activin A,do not lead to significant upregulation
same,expression of definitive endoderm markers compared to activin A only,[3],Robust expression
"CC(C)C[C@H](NC(=O)[C@H](Cc1ccccc1)C[C@@H](O)[C@H](Cc1ccccc1)NC(=O)OC(C)(C)C)C(=O)N[C@@H](Cc1ccccc1)C(N)=O [L-685,458]",expression of Ngn3 relative to activin A alone or retinoic acid with FGFs,[4],approximately 50 fold
"CC1=C(/C=C/C(C)=C/C=C/C(C)=C/C(=O)O)C(C)(C)CCC1 [retinoic acid, all-trans retinoic acid]",expression of GLUT-2 and PTF1a,"[5]; 1 μM retinoic acid and 50 ng/ml bFGF, absence of activin A",largest increase
same,Pdx1 expression relative to activin A treatment alone for 5 days,"[5]; three days activin A, then 5 days retinoic acid and 50 ng/ml bFGF in the absence of activin A",approximately 3500 fold
"FGF-4: member of the fibroblast growth factor family (protein, UniProt P08620 31-206, looked up) Fibroblast growth factor 4: APTAPNGTLEAELERRWESLVALSLARLPVAAQPKEAAVQSGAGDYLLGIKRLRRLYCNVGIGFHLQALPDGRIGGAHADTRDSLLELSPVERGVVSIFGVASRFFVAMSSKGKLYGSPFFTDECTFKEILLPNNYNAYESYKYPGMFIALSKNGKTKKGNRVSPTMKVTHFLPRL",expression of α-fetoprotein (AFP) and albumin,[6],further increased
"Wnt-5a: Wnt ligand, Catalog #654-WN-010, R&D Systems (protein, UniProt P22725 62-380, looked up) Protein Wnt-5a: IIGAQPLCSQLAGLSQGQKKLCHLYQDHMQYIGEGAKTGIKECQYQFRHRRWNCSTVDNTSVFGRVMQIGSRETAFTYAVSAAGVVNAMSRACREGELSTCGCSRAARPKDLPRDWLWGGCGDNIDYGYRFAKEFVDARERERIHAKGSYESARILMNLHNNEAGRRTVYNLADVACKCHGVSGSCSLKTCWLQLADFRKVGDALKEKYDSAAAMRLNSRGKLVQVNSRFNSPTTQDLVYIDPSPDYCVRNESTGSLGTQGRLCNKTSEGMDGCELMCCGRGYDQFKTVQTERCHCKFHWCCYVKCKKCTEIVDQFVCK",expression of definitive endoderm markers (real-time PCR),[7],minimal impact
"Wnt-5b: Wnt ligand, Catalog #3006-WN-025, R&D Systems (protein, UniProt P22726 18-359, looked up) Protein Wnt-5b: QLLTDANSWWSLALNPVQRPEMFIIGAQPVCSQLPGLSPGQRKLCQLYQEHMSYIGEGAKTGIRECQHQFRQRRWNCSTVDNTSVFGRVMQIGSRETAFTYAVSAAGVVNAISRACREGELSTCGCSRAARPKDLPRDWLWGGCGDNVEYGYRFAKEFVDAREREKNFAKGSEEQGRALMNLQNNEAGRRAVYKMADVACKCHGVSGSCSLKTCWLQLAEFRKVGDRLKEKYDSAAAMRITRQGKLELANSRFNQPTPEDLVYVDPSPDYCLRNETTGSLGTQGRLCNKTSEGMDGCELMCCGRGYDRFKSVQVERCHCRFHWCCFVRCKKCTEVVDQYVCK",expression of definitive endoderm markers (real-time PCR),[7],minimal impact
"Wnt-7a: Wnt ligand, Catalog #3008-WN-025, R&D Systems (protein, UniProt O00755 32-349, looked up) Protein Wnt-7a: LGASIICNKIPGLAPRQRAICQSRPDAIIVIGEGSQMGLDECQFQFRNGRWNCSALGERTVFGKELKVGSREAAFTYAIIAAGVAHAITAACTQGNLSDCGCDKEKQGQYHRDEGWKWGGCSADIRYGIGFAKVFVDAREIKQNARTLMNLHNNEAGRKILEENMKLECKCHGVSGSCTTKTCWTTLPQFRELGYVLKDKYNEAVHVEPVRASRNKRPTFLKIKKPLSYRKPMDTDLVYIEKSPNYCEEDPVTGSVGTQGRACNKTAPQASGCDLMCCGRGYNTHQYARVWQCNCKFHWCCYVKCNTCSERTEMYTCK",expression of definitive endoderm markers (real-time PCR),[7],minimal impact
"BMP-4: Catalog #314-BP-010, R&D Systems (protein, UniProt P12644 293-408, looked up) Bone morphogenetic protein 4: SPKHHSQRARKKNKNCRRHSLYVDFSDVGWNDWIVAPPGYQAFYCHGDCPFPLADHLNSTNHAIVQTLVNSVNSSIPKACCVPTELSAISMLYLDEYDKVVLKNYQEMVVEGCGCR",effect of addition of BMP-4 to the DE protocol,[2]; 25 ng/ml BMP-4,induce formation of mesoderm marker BRY
